Measurements reported in US4691014A, “Cephalosporin compounds” (Kaken Pharmaceutical Co., Ltd., priority 1984, dated 1987).
≈ marks a conversion by molar mass, not a printed value.

Legend:
Assay type in all cases: cell-based
[1] = test system: Staphylococcus aureus JC-1; experiment: Minimum inhibitory concentration against Staphylococcus aureus JC-1; conditions: JC1
Escherichia coli JC-2 = experiment: Minimum inhibitory concentration against Escherichia coli JC-2; conditions: JC2
[2] = test system: Klebsiella pneumoniae KC-1; experiment: Minimum inhibitory concentration against Klebsiella pneumoniae KC-1; conditions: KC1
Proteus vulgaris GN-76 = experiment: Minimum inhibitory concentration against Proteus vulgaris GN-76; conditions: GN76
[3] = test system: Pseudomonus aeruginosa GN1036; experiment: Minimum inhibitory concentration against Pseudomonus aeruginosa GN1036; conditions: Pseudomonas aeruginosa
[4] = test system: Pseudomonus aeruginsoa Y-1; experiment: Minimum inhibitory concentration against Pseudomonus aeruginsoa Y-1; conditions: Pseudomonas aeruginosa, Y1

Row | Compound | MIC [1] [µg/mL] | MIC (Escherichia coli JC-2) [µg/mL] | MIC [2] [µg/mL] | MIC (Proteus vulgaris GN-76) [µg/mL] | MIC [3] [µg/mL] | MIC [4] [µg/mL]
1 | CC(=O)Oc1ccc(C(=O)CO/N=C(\C(=O)N[C@@H]2C(=O)N3C(C(=O)O)=C(CSc4nnnn4CC(=O)O)CS[C@H]23)c2coc(N)n2)cc1OC(C)=O [Example 3, 7β-[2-(2-aminooxazol-4-yl)-2-Z-(3,4-diacetoxybenzoylmethoxyimino)]acetamido-3-(1-carboxymethyl-1H-tetrazol-5-yl)thiomethyl-3-cephem-4-carboxylicacid] | 12.5 (≈ 16.5 µM) | 0.2 (≈ 0.263 µM) | 0.05 (≈ 0.0658 µM) | 1.56 (≈ 2.05 µM) | 0.2 (≈ 0.263 µM) | < 0.05
2 | CC(=O)Oc1ccc(C(=O)O/N=C(\C(=O)N[C@@H]2C(=O)N3C(C(=O)O)=C(CSc4nnnn4CC(=O)O)CS[C@H]23)c2coc(N)n2)cc1OC(C)=O [Example 7, 7β-[2-(2-aminooxazol-4-yl)-2-Z-(3,4-diacetoxybenzoyloxyimino)acetamido]-3-(1-carboxymethyl-1H-tetrazol-5-yl)thiomethyl-3-cephem-4-carboxylic acid] | 12.5 (≈ 16.8 µM) | 0.05 (≈ 0.0671 µM) | < 0.05 | 0.1 (≈ 0.134 µM) | 0.05 (≈ 0.0671 µM) | < 0.05
3 | CC(=O)Oc1ccc(C(=O)O/N=C(\C(=O)N[C@@H]2C(=O)N3C(C(=O)O)=C(CSc4nnnn4C)CS[C@H]23)c2coc(N)n2)cc1OC(C)=O [Example 5, 7β-[2-(2-aminooxazol-4-yl)-2-Z-(3,4-diacetoxybenzoyloxyimino)acetamido]-3-(1-methyl-1H-tetrazol-5-yl)thiomethyl-3-cephem-4-carboxylic acid] | 1.56 (≈ 2.22 µM) | 0.39 (≈ 0.556 µM) | 0.2 (≈ 0.285 µM) | 0.39 (≈ 0.556 µM) | 0.39 (≈ 0.556 µM) | 0.1 (≈ 0.143 µM)
4 | CCOC(=O)Oc1ccc(C(=O)O/N=C(\C(=O)N[C@@H]2C(=O)N3C(C(=O)O)=C(CSc4nnnn4C)CS[C@H]23)c2coc(N)n2)cc1OC(=O)OCC [Example 9, 7β-[2-(2-aminooxazol-4-yl)-2-Z-(3,4-diethoxycarbonyloxybenzoyloxyimino)acetamido]-3-(1-methyl-1H-tetrazol-5-yl)thiomethyl-3-cephem-4-carboxylic acid] | 3.12 (≈ 4.1 µM) | 0.2 (≈ 0.263 µM) | 0.05 (≈ 0.0656 µM) | 0.2 (≈ 0.263 µM) | 0.2 (≈ 0.263 µM) | 0.05 (≈ 0.0656 µM)
5 | CC(=O)OCC1=C(C(=O)O)N2C(=O)[C@@H](NC(=O)/C(=N\OCC(=O)c3ccc(OC(C)=O)c(OC(C)=O)c3)c3coc(N)n3)[C@H]2SC1 [Example 1, 7β-[2-(2-aminooxazol-4-yl)-2-Z-(3,4-diacetoxybenzoylmethoxyimino)acetamido]cephalosporanic acid] | 3.12 (≈ 4.73 µM) | 0.78 (≈ 1.18 µM) | 0.2 (≈ 0.303 µM) | 1.56 (≈ 2.37 µM) | 0.78 (≈ 1.18 µM) | 0.1 (≈ 0.152 µM)
6 | CC(=O)OCC1=C(C(=O)O)N2C(=O)[C@@H](NC(=O)/C(=N\OC(=O)c3ccc(OC(C)=O)c(OC(C)=O)c3)c3coc(N)n3)[C@H]2SC1 [Example 4, 7β-[2-(2-aminooxazol-4-yl)-2-Z-(3,4-diacetoxybenzoyloxyimino)acetamido]cephalosporanic acid] | 1.56 (≈ 2.42 µM) | 0.2 (≈ 0.31 µM) | 0.2 (≈ 0.31 µM) | 0.39 (≈ 0.604 µM) | 0.78 (≈ 1.21 µM) | 0.1 (≈ 0.155 µM)
7 | CC(=O)Oc1cc(C(=O)O/N=C(\C(=O)N[C@@H]2C(=O)N3C(C(=O)O)=C(CSc4nnnn4CC(=O)O)CS[C@H]23)c2coc(N)n2)cc(OC(C)=O)c1OC(C)=O [Example 10, 7β-[2-(2-aminooxazol-4-yl)-2-Z-(3,4,5-triacetoxybenzoyloxyimino)acetamido]-3-(1-carboxymethyl-1H-tetrazol-5-yl)thiomethyl-3-cephem-4-carboxylic acid] | 6.25 (≈ 7.78 µM) | 0.05 (≈ 0.0622 µM) | 0.2 (≈ 0.249 µM) | 0.05 (≈ 0.0622 µM) | 0.39 (≈ 0.485 µM) | 0.1 (≈ 0.124 µM)
8 | CC(=O)Oc1cc(C(=O)O/N=C(\C(=O)N[C@@H]2C(=O)N3C(C(=O)O)=C(CSc4nnnn4C)CS[C@H]23)c2coc(N)n2)cc(OC(C)=O)c1OC(C)=O [Example 8, 7β-[2-(2-aminooxazol-4-yl)-2-Z-(3,4,5-triacetoxybenzoyloxyimino)acetamido]-3-(1-methyl-1H-tetrazol-5-yl)thiomethyl-3-cephem-4-carboxylic acid] | 1.56 (≈ 2.05 µM) | 0.1 (≈ 0.132 µM) | 0.1 (≈ 0.132 µM) | 0.39 (≈ 0.513 µM) | 0.39 (≈ 0.513 µM) | 0.1 (≈ 0.132 µM)
9 | CC(=O)Oc1ccc(C(=O)CO/N=C(\C(=O)N[C@@H]2C(=O)N3C(C(=O)O)=C(CSc4nnnn4C)CS[C@H]23)c2coc(N)n2)cc1OC(C)=O [Example 2, 7β-[2-(2-aminooxazol-4-yl)-2-Z-(3,4-diacetoxybenzoylmethoxyimino)acetamido]-3-(1-methyl-1H-tetrazol-5-yl)thiomethyl-3-cephem-4-carboxylic acid] | 3.12 (≈ 4.36 µM) | 0.2 (≈ 0.279 µM) | 0.05 (≈ 0.0699 µM) | 1.56 (≈ 2.18 µM) | 0.2 (≈ 0.279 µM) | 0.05 (≈ 0.0699 µM)
10 | CC(=O)Oc1ccc(C(=O)O/N=C(\C(=O)N[C@@H]2C(=O)N3C(C(=O)O)=C(CSc4nnc(C)s4)CS[C@H]23)c2coc(N)n2)cc1OC(C)=O [Example 6, 7β-[2-(2-aminooxazol-4-yl)-2-Z-(3,4-diacetoxybenzoyloxyimino)acetamido]-3-(2-methyl-1,3,4-thiadiazol-5-yl)thiomethyl-3-cephem-4-carboxylic acid] | 3.12 (≈ 4.35 µM) | 0.2 (≈ 0.279 µM) | 0.05 (≈ 0.0697 µM) | 0.2 (≈ 0.279 µM) | 0.39 (≈ 0.543 µM) | 0.1 (≈ 0.139 µM)
11 | CO/N=C(\C(=O)N[C@@H]1C(=O)N2C(C(=O)O)=C(COC(C)=O)CS[C@H]12)c1csc(N)n1 [Cefotaxime, reference compound] | 6.25 (≈ 13.7 µM) | 0.1 (≈ 0.22 µM) |  | 0.05 (≈ 0.11 µM) | 12.5 (≈ 27.4 µM) | 12.5 (≈ 27.4 µM)
